Results on two compounds are retold here after article PMC12024397, “Structure–Activity Study of the Antimicrobial Lipopeptide Humimycin A and Screening Against Multidrug-Resistant Staphylococcus aureus” (Antibiotics, 2025).

One test deals with S. aureus ATCC 29213. As to the kind of experiment: microbe, parasite or virus in culture. To be noted: Staphylococcus aureus, ATCC29213, read-out: Inhibition zone diameter. On the procedure: Each agar well was loaded with 70 µL of a peptide solution (256 µg/mL).
For the agar diffusion assay, the bacterial strain was cultured overnight at 37 °C in the previously described media. Cultures were then inoculated at 1% (v/v) in a soft agar medium containing 1.5% (w/v) agar. Wells were created in the inoculated agar plates, and 70 µL of the humimycin analog solution (256 µg/mL) was added to each well. Kanamycin sulfate (256 µg/mL) and 5% dimethyl sulfoxide (DMSO) in water were included as positive and negative control, respectively.

The subject of test [1] is Staphylococcus aureus ATCC 29213. Type of test: cell-based. An excerpt:
(§1) Analogs were serially diluted two-fold from stock solutions.

In test [2] the test system is Staphylococcus aureus ATCC 43300. It counts as cell-based. The following applies: ATCC 43300.
Source text: as §1

The test system of test [3] is Bacillus subtilis ATCC 23857. The test can be described thus: MIC, broth microdilution. Type of test: cell-based. The following applies: 37 °C, 18–20 h, triplicate.
Source text: as §1
(In general: Dilution methods test growth across graded concentrations, often in twofold steps.)

The test system of test [4] is Escherichia coli ATCC 25922. The test can be described thus: MIC, broth microdilution. It counts as cell-based. To be noted: 37 °C, 18–20 h, triplicate.
Source text: as §1

The subject of test [5] is Pseudomonas aeruginosa ATCC 27853. As to the kind of experiment: MIC, broth microdilution. It counts as cell-based. The following applies: 37 °C, 18–20 h, triplicate.
Source text: as §1

The subject of test [6] is Salmonella enterica ATCC 14028. The test can be described thus: MIC, broth microdilution. The following applies: 37 °C, 18–20 h, triplicate. Type of test: cell-based.
Source text: as §1

For test [7], the system named is Staphylococcus and Streptococcus species. To be noted: stereochemistry of the β-hydroxyl group; cited from earlier work. An excerpt:
Among promising AMLPs of bacterial origin, humimycins show very attractive activities against S. aureus. Humimycins A 1 and B 2 are composed of a heptapeptide bearing an N-terminal β-hydroxy myristoyl lipid chain (Table 1). […] A novel approach was employed to discover humimycins by combining bioinformatics and chemical synthesis. Rather than depending on bacterial cultures to discover and produce ... || β-Hydroxymyristic acid is specifically incorporated into lipopeptides like surfactin by certain enzymes in Bacillus species. […] The presence of a hydroxyl group imparts some amphiphilicity, aiding interaction with bacterial mem ...

The structures appear in SMILES notation. ≈ marks a conversion by molar mass, not a printed value. Where a name gives a salt, the structure may show the parent alone. Non-standard residues stand in square brackets, D forms with d. Residues, ends and D or L forms follow the SMILES beside them. *: point of attachment. Tetradecanoyl(3S-OH) = CCCCCCCCCCC[C@H](O)CC(=O)*

In the case of `NC[C@H]1O[C@H](O[C@H]2[C@H](O)[C@@H](O[C@H]3O[C@H](CO)[C@@H](O)[C@H](N)[C@H]3O)[C@H](N)C[C@@H]2N)[C@H](O)[C@@H](O)[C@@H]1O` [Kanamycin sulfate], the zone of inhibition at 256 µg/mL in the test with S. aureus ATCC 29213 amounted to 24 mm.
On to `CCCCCCCCCCC[C@H](O)CC(=O)N[C@@H](Cc1ccc(O)cc1)C(=O)N[C@@H](CO)C(=O)N[C@H](Cc1ccc(O)cc1)C(=O)N[C@@H](Cc1ccccc1)C(=O)N[C@@H](C(=O)N[C@H](C(=O)N[C@H](C(=O)O)C(C)C)C(C)C)[C@H](C)O` [compound 1, reference compound] ({Tetradecanoyl(3S-OH)}-YS[dY]F[dT]VV-OH; N-terminus and C-terminus assumed), for which the MIC (usually the smallest concentration in the dilution series that meets the test's criterion for growth inhibition) in test [1] is 8 µg/mL (≈ 7.24 µM); in test [2], 16 µg/mL (≈ 14.5 µM); in test [3] it was “- ^b (No antimicrobial activity was detected up to 256 µg/mL)”; in test [4], “- (No antimicrobial activity was detected up to 256 µg/mL)”; in test [5], “- (No antimicrobial activity was detected up to 256 µg/mL)”; in test [6], “- (No antimicrobial activity was detected up to 256 µg/mL)”. The “potency of (S)-isomer relative to (R)-isomer” value in test [7] was “four-fold more potent”.
